Results reported in patent US20080171070A1, “Polyelectrolyte Multilayer Film, Preparation And Uses Thereof” (priority 2005, published 2008).

Tests used:
human macrophages [1] = conditions: cited from earlier work
[2] = FTIR spectroscopy in transmission mode, amide-I spectra of protein A with polypeptides; assay type: physicochemical; conditions: protein A with PlL and/or PdL, 1 mg mL^−1 each, D2O, 0.15M NaCl
Description: FTIR Spectroscopy in transmission mode. Transmission spectra were measured on an EQUINOX 55 spectrophotometer (Bruker, Wissembourg, France) using a DTGS detector. Solutions were flown into a sample cell holder (SPECAC P/N 20510). Transmission spectra were measured by using CaF2 windows. Single channel spectra from 128 interferograms were calculated between 4000 and 400 cm^−1 with 2 cm^−1 resolution, using Blackman-Harris three-term apodization and Mertz phase correction with the standard Bruker OPUS/IR software (Version 3.0.4). Each sample (aqueous solution of polypeptide or protein A or both) was prepared at a concentration of 1 mg mL^−1 of each component, in a D2O, 0.15M NaCl (purchased from Prolabo) solution.

cells = conditions: replacement of PlL by PdL in the film; cited from earlier work
macrophages = experiment: Confocal laser scanning microscopy of films in contact with cells (film degradation, contact with embedded protein A); assay type: cell-based, human; conditions: protein A embedded under 20 pairs of (PlGA/PlL) layers
Description: Confocal laser scanning microscopy. For the confocal laser scanning microscopy (CLSM) based investigations, the films were imaged in liquid conditions. CLSM observations were carried out with a Zeiss LSM 510 microscope using a ×40/1.4 oil immersion objective and with 0.4 μm z-section intervals. FITC fluorescence was detected after excitation at 488 nm, cutoff dichroic mirror 488 nm, and emission band pass filter 505-530 nm (green). Virtual vertical sections can be visualized, allowing the thickness of the film to be determined.
In previous experiments, the inventors could visualize the pseudopods developing through the multilayer down to the protein A layer.^[19] […] The progressive degradation of the (PlGA/PlL)n film as a function of contact time with the cells is visualized in FIGS. 2a-2c.
The inventors have seen that the film thickness depends upon the d/l ratio of the build-up polyelectrolyte solutions and in particular that it decreases when x increases from 0 up to 50%. On the other hand, for a given number of deposited pairs of layers, the biological activity decreases when x increases. The variations of the biological effects can thus not be attributed to changes of the film thickness with x. The biological effects can rather be explained by a continuous degradation and pseudopod development through the multilayered films^[19] as already found on (PlL/PlGA)n films. […]

human macrophages [3] = experiment: Stimulation assay: TNF-α production (ELISA) by macrophages seeded on PA-containing polyelectrolyte multilayers; assay type: cell-based
Text: Cell Culture. Whole blood samples were purchased at the “Etablissement Français du Sang” (EFS, Strasbourg, France). Peripheral mononuclear blood cells (PBMC) from healthy individuals, seronegative for […] and hepatitis B and C were isolated from buffy coat by Ficoll/Hypaque centrifugation and were washed twice in phosphate-buffered saline without Ca^2+/Mg^2+. Monocytes were isolated from whole-blood and separated by counter-current centrifugal elutriation of the peripheral mononuclear cells.^[40] Purity was measured by flow cytometry staining with fluorochrome antibodies (Becton Dickinson, PharMingen, San Diego, Calif.) to CD3 (T cells), CD19 (B cells), CD14 (monocytes) and CD45 (leukocytes). Monocytes were diluted at 1.5×10^6 cells mL^−1 in AIM lymphocytes SVF free medium with Glutamax, 100 U mL^−1 GM-CSF (PeproTech, Rocky Hill, USA). Culture medium was changed after 3 days of culture, and at day 5 macrophages were washed twice with RPMI at 37° C.
Polyelectrolyte multilayered film preparation. Polyelectrolyte multilayers were always prepared on glass coverslips (CML, France) pretreated for 15 min at 100° C. with 10^−2 M SDS and 0.12 N HCl, and then extensively rinsed with deionised water. Glass coverslips were deposited in 24-well plates (Nunc, Denmark). All the solutions (polyelectrolyte, PA and rinsing) used for the film constructions contained 0.15 M NaCl with a pH adjusted to 7.4. At this pH both polylysine and polyglutamic acid are almost fully charged, be they l or d enantiomers so that they should not form stereocomplexes in solution. The films were constructed with polyelectrolyte (resp. PA) solutions at 1 mg·mL^−1 (resp. 200 μg·mL^−1) of polyelectrolytes (resp. PA). The film construction was performed as follows: First a precursor film constituted by (PlL/PlGA)5-PlL was built. In each deposition step, the surface is brought in contact with the polyelectrolyte solution for 20 mins followed by another contact with the rinsing solution for 5 mins. This rinsing step is repeated 3 times before adsorption of the polyelectrolyte of opposite charge. After the buildup of the precursor film, PA was adsorbed on the positively charged PlL terminating the precursor film during an overnight contact with PA solution. This film was then rinsed and the additional (PL/PGA)n-PL film was built by using PL and PGA solutions containing (x/100) mg·mL^−1 of PdL (resp. PdGA) and (1-x/100) mg·mL^−1 of PlL (resp. PlGA). All the films were then sterilized for 10 mins by ultraviolet light (254 nm). Before use, the architectures were put in contact with 1 mL of RPMI without serum during 24 h. It is possible that when the films are brought in contact with the culture medium, their structure and thickness change, the structure of the multilayers being dependent on many different physico-chemical parameters.^[41-43] However, such changes cannot explain the different biological effects that are observed in this study. […] One can also notice that the films were built at room temperature whereas the experiments with cells were realized at 37° C.
Stimulation assays. Stimulation assays involving polyelectrolyte films were conducted by seeding 5×10^5 cells (macrophages) onto the PA-containing polyelectrolyte multilayers prepared on glass coverslips and placed into the wells of 24-well plates. TNF-α production by cells was measured by ELISA. TNF-α levels were detected by an enzyme immunoassay (Endogen Products, Woburn, Mass.). All experiments were repeated twice and were performed at 37° C.
For multilayer films containing embedded PA, the proteins were always adsorbed on a (PlL/PlGA)5-PlL precursor film in order to keep the adsorption process (in particular the amount of adsorbed proteins) unaffected by the d/l composition of the film. The multilayer with a given d/l composition was then further deposited on top of the (PlL/PlGA)5-PlL-PA architecture and is constituted by n additional pairs of layers. […]

PA: Staphylococcus aureus protein A, MW=42,000 Da, from Sigma; embedded in the multilayer films as model active ingredient
Cytokine expression on PA stimulation (human macrophages [1]): rapid expression of both the pro-inflammatory cytokine TNF-α and the anti-inflammatory cytokine IL-10 | Effect of polypeptide interaction on secondary structure of protein A (amide-I spectra) [2]: do not affect the secondary structure of protein A | Cellular communication with embedded PA (cells): prevents cellular communication with embedded PA | Contact of macrophages with embedded protein A (CLSM) (macrophages): come into contact with protein A | TNF-α production (biological activity) (human macrophages [3]; d content between 10 and 20%, all embedding depths up to n=20, after 4 hours of contact): full activity | TNF-α production (biological activity) (human macrophages [3]; d content between 10 and 20%, embedding depth exceeds 15 pairs of layers, after 4 hours of contact): reaches its full activity | TNF-α production (biological response) (human macrophages [3]; d content between 10 and 20%, embedding depth exceeds 15 pairs of layers, initial 3 hours of contact): no biological response | TNF-α production (biological activity), time course (human macrophages [3]; d content between 10 and 20%, embedding depths up to 5 pairs of layers): increases continuously in time, the plateau value being reached after 4 hours of contact | TNF-α production (cellular response) (human macrophages [3]; n=0: PA adsorbed on top of the film, direct contact with cells, lasts at least up to 6 hours): rapid cellular response is observed already after one hour of contact | TNF-α production (biological activity) (human macrophages [3]; x between 30 and 40%, PA embedded under 1 layer pair): gradually increases after 2 hours of contact | TNF-α production (biological activity) (human macrophages [3]; x between 30 and 40%, embedded under 5 pairs of layers, after 6 hours of contact): fully active | TNF-α production (biological activity) (human macrophages [3]; x between 30 and 40%, embedded under 5 pairs of layers, first 4 hours): totally suppressed | TNF-α production (biological activity) (human macrophages [3]; x between 30 and 40%, embedded under 15 pairs of layers or more, first 6 hours of contact): no longer acts on cells | TNF-α production (biological activity) (human macrophages [3]; x equals 50% or more of d enantiomer, PA embedded under a (PL/PGA/PL) trilayer): totally suppressed
